For the first assay, the system named is HBV. Briefly: HepAD38 antiviral assay: reduction of viral product accumulation (virion DNA by qPCR, HBsAg or HBeAg by ELISA). The format is cell-based. The note with it: Hepatitis B virus, 120 h; HepAD38 cells, five days after compound addition; 50% reduction of viral product accumulation relative to no drug controls; read-out: HepAD38 EC50. The method, then: Methods: HepAD38 cells are maintained as previously reported (Ladner et al, Antimicrob. Agents Chemother. 1997, […], 1715). Briefly, cells are passaged upon attaining confluency in DMEM/F12 media in the presence of 10% FBS, Penn/Strep, 250 μg/mL G418, and 1 ug/ml tetracycline. Novel compounds are screened by first washing cells three times with PBS to remove tetracycline, and plating in 96 well plates at 35,000 cells/well. Compounds dissolved in DMSO are then diluted 1:200 into wells containing cells. Five days after compound addition, material is harvested for analysis. For an extended 8 day analysis, cells are plated and treated as described above, but media and compound are refreshed on d2 and d5 post initial treatment.
On harvest day, virion DNA is obtained by lysing with Sidestep Lysis and Stabilization Buffer and then quantified via quantitative real time PCR. Commercially available ELISA kits are used to quantitate the viral proteins HBsAg (Alpco) or HbeAg (US Biological) by following the manufacturer's recommended protocol after diluting samples to match the linear range of their respective assays. Irrespective of readout, compound concentrations that reduce viral product accumulation in the cell lysates or supernatants by 50% relative to no drug controls (EC50) are reported; EC50 ranges are as follows: A<1 μM; B 1-10 μM; C>10 μM.
For orientation: Real-time PCR tracks product formation cycle by cycle.
As usually defined, the EC50 is the concentration giving half of the maximal effect. For `O=S(=O)(c1cc(-c2nc(-c3ccc(Cl)c(C4CC4)c3)c[nH]2)ccc1Cl)N1CCC(O)CC1` [Example 17], the EC50 was under 1 µM.
Still for that read-out and setting: as for `O=S(=O)(c1cc(-c2nc(-c3ccc(Br)c(F)c3)c[nH]2)ccc1Cl)N1CC[C@@H](O)[C@@H](O)CC1` [Example 19], the figure is under 1 µM; as for `O=S(=O)(c1cc(-c2nc(-c3ccc(Br)c(F)c3)c[nH]2)ccc1Cl)N1CC[C@@H](O)[C@H](O)CC1` [Example 20], under 1 µM; as for `O=S(=O)(c1cc(-c2nc(-c3ccc(Br)c(F)c3)c[nH]2)ccc1Cl)N1C[C@@H](O)C[C@H]2C[C@H]2C1` [Example 34], under 1 µM.
Same read-out and setting: as for `O=S(=O)(c1cc(-c2nc(-c3cccs3)c[nH]2)ccc1Cl)N1CCC(O)CC1` [Example 70], the figure is 1 to 10 µM.
Same read-out and setting: as for `O=S(=O)(c1cc(-c2nc(-c3ccccc3Br)c[nH]2)ccc1Cl)N1CCC(O)CC1` [Example 74], the figure is over 10 µM; as for `O=S(=O)(c1cc(-c2nc(-c3ccccc3Cl)c[nH]2)ccc1Cl)N1CCC(O)CC1` [Example 75], over 10 µM.
For `O=S(=O)(c1cc(-c2nc(-c3ccc4ocnc4c3)c[nH]2)ccc1Cl)N1CCC(O)CC1` [Example 76], the EC50 was over 10 µM.
Same read-out and setting: the result for `COCCN(C)S(=O)(=O)c1cc(-c2ncc(-c3ccc(F)c(Br)c3)[nH]2)ccc1Cl` [Example 77] reads over 10 µM; that for `O=S(=O)(c1cc(-c2nc(-c3cc(F)c(F)c(Cl)c3)c[nH]2)ccc1Cl)N1CCC(O)CC1` [Example 78], over 10 µM.
Same read-out and setting: as for `O=S(=O)(c1cc(-c2nc(-c3cscn3)c[nH]2)ccc1Cl)N1CCC(O)CC1` [Example 80], the figure is over 10 µM; as for `O=S(=O)(c1cc(-c2nc(-c3nccs3)c[nH]2)ccc1Cl)N1CCC(O)CC1` [Example 81], over 10 µM; as for `O=S(=O)(c1cc(-c2nc(-c3ccc(F)cc3F)c[nH]2)ccc1Cl)N1CCC(O)CC1` [Example 84], 1 to 10 µM.
Still for that read-out and setting: as for `O=S(=O)(c1cc(-c2nc(-c3cccc(F)c3F)c[nH]2)ccc1Cl)N1CCC(O)CC1` [Example 85], the figure is over 10 µM; as for `O=S(=O)(c1cc(-c2nc(-c3cc(F)cc(F)c3)c[nH]2)ccc1Cl)N1CCC(O)CC1` [Example 86], 1 to 10 µM; as for `COc1ccccc1-c1c[nH]c(-c2ccc(Cl)c(S(=O)(=O)N3CCC(O)CC3)c2)n1` [Example 88], 1 to 10 µM.
As to `Cc1ccc(-c2c[nH]c(-c3ccc(Cl)c(S(=O)(=O)N4CCC(O)CC4)c3)n2)cc1` [Example 96], the EC50 lay in the range of 1 to 10 µM.
On the same count and under the same terms, the result for `N#Cc1ccc(-c2c[nH]c(-c3ccc(Cl)c(S(=O)(=O)N4CCC(O)CC4)c3)n2)cc1` [Example 97] reads under 1 µM; that for `COc1ccc(-c2c[nH]c(-c3ccc(Cl)c(S(=O)(=O)N4CCC(O)CC4)c3)n2)cc1` [Example 98], 1 to 10 µM.
For `O=S(=O)(c1cc(-c2nc(-c3ccc(C(F)(F)F)cc3)c[nH]2)ccc1Cl)N1CCC(O)CC1` [Example 99], the EC50 was over 10 µM.
On to `CC(C)(C)CC(=O)NCCCNS(=O)(=O)c1cc(-c2nc(-c3ccc(Br)c(F)c3)c[nH]2)ccc1Cl` [Example 141], for which the EC50 was under 1 µM.
Same read-out and setting: the result for `N#Cc1ccc(-c2c[nH]c(-c3ccc(Cl)c(S(=O)(=O)N4CCC(O)CC4)c3)n2)cc1Cl` [Example 149] reads under 1 µM; that for `N#Cc1cc(-c2c[nH]c(-c3ccc(Cl)c(S(=O)(=O)N4CCC(O)CC4)c3)n2)ccc1C(F)(F)F` [Example 150], under 1 µM; that for `O=S(=O)(c1cc(-c2nc(-c3ccc(C(F)(F)F)c(Cl)c3)c[nH]2)ccc1Cl)N1CCC(O)CC1` [Example 151], under 1 µM.
`O=S(=O)(c1cc(-c2nc(-c3ccc(Cl)c(C(F)(F)F)c3)c[nH]2)ccc1Cl)N1CCC(O)CC1` [Example 152]: the EC50 was under 1 µM.
On the same count and under the same terms, as for `NS(=O)(=O)c1cc(-c2nc(-c3ccc(Br)c(F)c3)c[nH]2)ccc1Cl` [Example 153], the figure is 1 to 10 µM.
Same read-out and setting: the result for `N#Cc1ccc(-c2c[nH]c(-c3ccc(Cl)c(S(=O)(=O)N4CCC(O)CC4)c3)n2)cc1C(F)(F)F` [Example 155] reads under 1 µM; that for `N#Cc1cc(-c2c[nH]c(-c3ccc(Cl)c(S(=O)(=O)N4CCC(O)CC4)c3)n2)ccc1C1CC1` [Example 156], 1 to 10 µM; that for `O=S(=O)(c1cc(-c2nc(-c3ccc(C4CC4)c(Cl)c3)c[nH]2)ccc1Cl)N1CCC(O)CC1` [Example 157], under 1 µM.
Consider `CC(C)(C)c1ccc(-c2c[nH]c(-c3ccc(Cl)c(S(=O)(=O)N4CCC(O)CC4)c3)n2)cc1` [Example 158], for which the concentration giving a half-maximal response (EC50) is under 1 µM.
The same measure, in the same setting: the result for `O=S(=O)(c1cc(-c2nc(-c3ccccc3O)c[nH]2)ccc1Cl)N1CCC(O)CC1` [Example 159] reads 1 to 10 µM.
For the molecule `C[C@H](N)C(=O)OC1CCN(S(=O)(=O)c2cc(-c3nc(-c4ccc(F)c(Br)c4)c[nH]3)ccc2Cl)CC1` [Example 160], the EC50 lay within 1 to 10 µM.
In the case of `O=S(=O)(c1cc(-c2nc(-c3ccc(C(F)(F)F)c(C4CC4)c3)c[nH]2)ccc1Cl)N1CCC(O)CC1` [Example 161], the EC50 is under 1 µM.
Take `CC(C)(C)c1cccc(-c2c[nH]c(-c3ccc(Cl)c(S(=O)(=O)N4CCC(O)CC4)c3)n2)c1` [Example 162]: the EC50 was 1 to 10 µM.
On the same count and under the same terms, as for `O=S(=O)(c1cc(-c2nc(-c3ccc(Br)c(F)c3)c[nH]2)ccc1Cl)N1CC2COCC2C1` (stereo not shown) [Example 163], the figure is under 1 µM.
The same measure, in the same setting: as for `COCC(C)NS(=O)(=O)c1cc(-c2nc(-c3ccc(Br)c(F)c3)c[nH]2)ccc1Cl` (stereo not shown) [Example 164], the figure is 1 to 10 µM; as for `O=C(c1ccccc1)N1CCN(S(=O)(=O)c2cc(-c3nc(-c4ccc(Br)c(F)c4)c[nH]3)ccc2Cl)CC1` [Example 165], 1 to 10 µM; as for `O=C(Nc1ccccc1)C1CCN(S(=O)(=O)c2cc(-c3nc(-c4ccc(Br)c(F)c4)c[nH]3)ccc2Cl)CC1` [Example 166], 1 to 10 µM.
Same read-out and setting: as for `CC(C)(C)OC(=O)NC[C@@H]1[C@H]2CN(S(=O)(=O)c3cc(-c4ncc(-c5ccc(F)c(Br)c5)[nH]4)ccc3Cl)C[C@@H]12` [Example 167], the figure is 1 to 10 µM; as for `COC(=O)NC[C@@H]1[C@H]2CN(S(=O)(=O)c3cc(-c4ncc(-c5ccc(F)c(Br)c5)[nH]4)ccc3Cl)C[C@@H]12` [Example 168], under 1 µM.
With `C[C@H](NC(=O)OC(C)(C)C)C(=O)OC1CCN(S(=O)(=O)c2cc(-c3nc(-c4ccc(F)c(Br)c4)c[nH]3)ccc2Cl)CC1` [Example 169], the EC50 is under 1 µM.
Same read-out and setting: as for `N#Cc1ccc(-c2c[nH]c(-c3ccc(Cl)c(S(=O)(=O)N4CCC(O)CC4)c3)n2)cc1C1CC1` [Example 170], the figure is under 1 µM; as for `O=S(=O)(c1cc(-c2nc(-c3ccc(C4CC4)c(C(F)(F)F)c3)c[nH]2)ccc1Cl)N1CCC(O)CC1` [Example 171], under 1 µM.
On the same count and under the same terms, as for `COC(=O)NCCC(C)NS(=O)(=O)c1cc(-c2nc(-c3ccc(Br)c(F)c3)c[nH]2)ccc1Cl` (stereo not shown) [Example 172], the figure is under 1 µM; as for `COC(=O)NCCCCNS(=O)(=O)c1cc(-c2nc(-c3ccc(Br)c(F)c3)c[nH]2)ccc1Cl` [Example 173], under 1 µM; as for `CC(C)(C)OC(=O)NCCCCNS(=O)(=O)c1cc(-c2nc(-c3ccc(Br)c(F)c3)c[nH]2)ccc1Cl` [Example 174], under 1 µM.
Same read-out and setting: as for `COC(=O)NCCCCCNS(=O)(=O)c1cc(-c2nc(-c3ccc(Br)c(F)c3)c[nH]2)ccc1Cl` [Example 175], the figure is under 1 µM.
`CC(C)(C)OC(=O)NCCCCCNS(=O)(=O)c1cc(-c2nc(-c3ccc(Br)c(F)c3)c[nH]2)ccc1Cl` [Example 176]: the concentration giving a half-maximal response (EC50) is under 1 µM.
The same measure, in the same setting: the result for `COC(=O)OCCCNS(=O)(=O)c1cc(-c2nc(-c3ccc(Br)c(F)c3)c[nH]2)ccc1Cl` [Example 177] reads under 1 µM; that for `COC(=O)N(C)CCCNS(=O)(=O)c1cc(-c2nc(-c3ccc(Br)c(F)c3)c[nH]2)ccc1Cl` [Example 178], under 1 µM.
The same measure, in the same setting: as for `O=C(NCCCNS(=O)(=O)c1cc(-c2nc(-c3ccc(Br)c(F)c3)c[nH]2)ccc1Cl)OCc1ccccc1` [Example 180], the figure is under 1 µM; as for `O=C(NCCCNS(=O)(=O)c1cc(-c2nc(-c3ccc(Br)c(F)c3)c[nH]2)ccc1Cl)c1ccccc1` [Example 181], under 1 µM.
Same read-out and setting: the result for `CC(C)(C)OC(=O)NCC1CN(S(=O)(=O)c2cc(-c3ncc(-c4ccc(F)c(Br)c4)[nH]3)ccc2Cl)C1` [Example 182] reads under 1 µM; that for `CC(C)(C)OC(=O)NC1CN(S(=O)(=O)c2cc(-c3ncc(-c4ccc(Br)c(F)c4)[nH]3)ccc2Cl)C1` [Example 183], under 1 µM; that for `O=S(=O)(c1cc(-c2nc(-c3ccc(Br)c(F)c3)c(Cl)[nH]2)ccc1Cl)N1CCC(O)CC1` [Example 184], over 10 µM.
Turning to `COC(=O)NCC(O)CNS(=O)(=O)c1cc(-c2nc(-c3ccc(Br)c(F)c3)c[nH]2)ccc1Cl` (stereo not shown) [Example 185], the EC50 is under 1 µM.
With `CNC(=O)OCCCNS(=O)(=O)c1cc(-c2nc(-c3ccc(Br)c(F)c3)c[nH]2)ccc1Cl` [Example 186], the EC50 was under 1 µM.

Staying with this assay, now noted: Hepatitis B virus, HePAD38, 120 h, read-out: HepAD38 EC50 (μM).
`O=C(NCCCNS(=O)(=O)c1cc(-c2nc(-c3ccc(Br)c(F)c3)c[nH]2)ccc1Cl)Oc1ccccc1` [Example 179]: the 50% effective concentration (EC50) is under 1 µM.

These data come from patent US10442788B2, “Hepatitis B antiviral agents” (ENANTA PHARMACEUTICALS, INC., priority 2015, dated 2019).
